Laboratory results taken from US4713386A, “Tetrahydroazeto [2,1-a]isoquinolines and methods for treating depression” (McNeilab, Inc., priority 1986, dated 1987).

System: Mouse
Test: Mouse Tetrabenazine Antagonism Assay (TBZ 32 mg/kg i.p.; exploratory activity and reversal of ptosis)
Assay type: in vivo
Conditions: mice, (1:1) fumarate salt
Experimental: In this test, mice are injected with a test compound 30 min prior to the injection of 32 mg/kg i.p. of TBZ, a drug which decreases normal exploratory activity and induces ptosis. After 30 min. the mice are tested for two parameters: the presence of normal exploratory activity (EA) and reversal of ptosis (Pt). A control group of mice is given only 32 mg/kg i.p. of TBZ. The biological activity of the novel compounds of this invention may be understood by the representative, nonlimiting example, presented in Table I.

[1] = @ 3 mg/kg i.p., 30 min before 32 mg/kg i.p. TBZ

For O=C(O)/C=C/C(=O)O.c1ccc([C@@H]2CN3CC[C@@H]3c3ccccc32)cc1 (relative stereo) [Example 1d, trans-1,4,5,9b-Tetrahydro-5-phenyl-2H-azeto[2,1-a]isoquinoline (E)-2-butenedioate], the ED50 (Mus musculus, ip, i.p., TBZ 32 mg/kg i.p.) was 1.25 mg/kg, the “% inhibition EA (exploratory activity)” value [1] was 50% and the “% inhibition Pt (reversal of ptosis)” value [1] was 88%.
